9 molecules from ChEMBL document CHEMBL4680379, “Structure-based Discovery of Cell-Potent Peptidomimetic Inhibitors for Protein N-Terminal Methyltransferase 1” (ACS Med Chem Lett, 2021) can be followed below.

Series [1] concerns the target T1, N-terminal Xaa-Pro-Lys N-methyltransferase 1 (Homo sapiens) (UniProt Q9BV86).
T1 sequence (whole entry): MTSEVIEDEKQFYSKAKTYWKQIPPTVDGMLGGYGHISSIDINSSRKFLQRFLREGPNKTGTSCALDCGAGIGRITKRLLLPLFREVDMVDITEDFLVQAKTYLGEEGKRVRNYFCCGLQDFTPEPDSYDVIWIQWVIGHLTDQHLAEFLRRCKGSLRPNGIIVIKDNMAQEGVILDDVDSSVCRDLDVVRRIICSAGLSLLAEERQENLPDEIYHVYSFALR
The series can be described thus: Inhibition of NTMT1 in human HCT116 cells assessed as decrease in me3-SPK level at 300 uM incubated for 3 days by Western blot analysis relative to control. The format is cell-based. Particulars: HCT-116, time 3.0 day.

For series [2], the target named is T2, N-terminal Xaa-Pro-Lys N-methyltransferase 1 (Homo sapiens, UniProt Q9BV86).
T2 sequence (Q9BV86 whole entry): T1 sequence (whole entry)
Nature of the series: Inhibition of recombinant human N-terminal His6-tagged NTMT1 (1 to 222 residues) expressed in Escherichia coli BL21-CodonPlus(DE3)-RIL using GPKRIA peptide and SAM as substrate pre-incubated for 10 mins in presence of SAM followed by substrate addition by SAHH coupled fluorescence assay.

Series [3] concerns the target T1, N-terminal Xaa-Pro-Lys N-methyltransferase 1 (Homo sapiens). The series can be described thus: Inhibition of NTMT1 in human HCT116 cells assessed as decrease in me3-SPK level at 1 mM incubated for 3 days by Western blot analysis relative to control. The format is cell-based. As to conditions: HCT-116, time 3.0 day.
For series [4] the target is unchanged. The series can be described thus: Inhibition of NTMT1 in human HCT116 cells assessed as decrease in me3-SPK level at 100 uM incubated for 3 days by Western blot analysis relative to control. The format is cell-based. As to conditions: HCT-116, time 3.0 day.
Series [5] concerns the target Trypsin (Homo sapiens, UniProt P07477+P07478+P35030). The series can be described thus: Stability of compound assessed as trypsin (unknown origin) mediated compound hydrolysis at 10 uM incubated for 1 hr by MALDI-MS analysis. The format is ADME, protein assay.
The species named for series [6] is Homo sapiens. The series can be described thus: Selectivity for recombinant human N-terminal His6-tagged NTMT1 (1 to 222 residues) expressed in Escherichia coli BL21-CodonPlus(DE3)-RIL over His-tagged SETD7 (unknown origin).
Series [7] is filed under the species Homo sapiens. The series can be described thus: Selectivity for recombinant human N-terminal His6-tagged NTMT1 (1 to 222 residues) expressed in Escherichia coli BL21-CodonPlus(DE3)-RIL over PRMT3 (unknown origin).
Series [8] addresses T2, N-terminal Xaa-Pro-Lys N-methyltransferase 1. The series can be described thus: Inhibition of NTMT1 in human HCT116 cells assessed as decrease in me3-SPK level incubated for 3 days by Western blot analysis. The class given is cell-based, HCT-116.
Series [9] deals with T3, Histone-lysine N-methyltransferase SETD7 (Homo sapiens) (UniProt Q8WTS6).
T3 sequence (whole entry): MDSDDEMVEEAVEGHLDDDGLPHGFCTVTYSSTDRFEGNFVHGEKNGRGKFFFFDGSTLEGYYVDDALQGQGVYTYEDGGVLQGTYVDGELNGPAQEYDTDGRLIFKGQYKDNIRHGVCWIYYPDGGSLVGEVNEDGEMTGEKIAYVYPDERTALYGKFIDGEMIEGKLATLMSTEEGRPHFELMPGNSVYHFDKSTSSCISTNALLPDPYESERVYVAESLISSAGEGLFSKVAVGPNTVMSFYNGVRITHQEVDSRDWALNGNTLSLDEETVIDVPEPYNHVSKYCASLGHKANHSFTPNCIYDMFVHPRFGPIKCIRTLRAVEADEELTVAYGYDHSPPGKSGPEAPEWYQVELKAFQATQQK
Nature of the series: Inhibition of His-tagged SETD7 (unknown origin) at 100 uM using H3-21 peptide as substrate preincubated for 10 mins in presence of SAM followed by substrate addition by SAHH-coupled fluorescence assay relative to control.

The target of series [10] is T4, Histone-lysine N-methyltransferase EHMT2 (Homo sapiens) (UniProt Q96KQ7).
T4 sequence (whole entry): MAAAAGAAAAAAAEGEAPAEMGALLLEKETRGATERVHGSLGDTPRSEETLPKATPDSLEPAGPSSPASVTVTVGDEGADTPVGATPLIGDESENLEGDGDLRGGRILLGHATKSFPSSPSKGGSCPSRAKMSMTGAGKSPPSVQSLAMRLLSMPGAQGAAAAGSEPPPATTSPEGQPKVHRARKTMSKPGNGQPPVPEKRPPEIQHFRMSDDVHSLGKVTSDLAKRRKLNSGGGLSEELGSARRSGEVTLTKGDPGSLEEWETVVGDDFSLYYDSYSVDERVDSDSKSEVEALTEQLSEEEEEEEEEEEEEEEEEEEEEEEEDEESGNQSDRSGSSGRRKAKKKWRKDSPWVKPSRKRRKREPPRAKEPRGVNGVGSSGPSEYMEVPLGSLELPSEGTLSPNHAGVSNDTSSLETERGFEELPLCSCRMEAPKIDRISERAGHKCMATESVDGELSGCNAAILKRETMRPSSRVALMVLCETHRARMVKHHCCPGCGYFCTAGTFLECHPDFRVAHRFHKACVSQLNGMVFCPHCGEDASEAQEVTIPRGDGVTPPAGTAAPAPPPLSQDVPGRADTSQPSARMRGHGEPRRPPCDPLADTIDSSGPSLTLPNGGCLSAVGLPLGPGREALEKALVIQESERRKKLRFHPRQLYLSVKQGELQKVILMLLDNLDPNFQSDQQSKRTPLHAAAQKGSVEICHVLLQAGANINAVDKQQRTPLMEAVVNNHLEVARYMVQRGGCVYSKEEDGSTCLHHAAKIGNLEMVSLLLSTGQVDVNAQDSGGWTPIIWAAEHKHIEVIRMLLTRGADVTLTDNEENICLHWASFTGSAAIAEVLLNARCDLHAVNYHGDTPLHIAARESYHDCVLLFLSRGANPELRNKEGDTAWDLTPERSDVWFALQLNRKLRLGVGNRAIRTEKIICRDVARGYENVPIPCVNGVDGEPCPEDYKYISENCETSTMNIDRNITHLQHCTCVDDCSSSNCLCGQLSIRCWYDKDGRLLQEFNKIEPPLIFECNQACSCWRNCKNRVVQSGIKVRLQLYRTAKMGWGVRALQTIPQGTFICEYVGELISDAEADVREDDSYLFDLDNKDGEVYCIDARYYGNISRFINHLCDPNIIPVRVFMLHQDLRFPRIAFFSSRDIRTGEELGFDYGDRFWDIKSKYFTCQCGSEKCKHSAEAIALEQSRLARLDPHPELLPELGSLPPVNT
Nature of the series: Inhibition of human His-tagged G9a (913 to 1193 residues) expressed in Escherichia coli BL21-CodonPlus(DE3)-RIL at 100 uM using H3-21 peptide as substrate preincubated for 10 mins in presence of SAM followed by substrate addition by SAHH-coupled fluorescence assay relative to control.

For series [11], the target named is Protein arginine N-methyltransferase 1 (Homo sapiens) (UniProt Q99873). Nature of the series: Inhibition of PRMT1 (unknown origin) at 100 uM using H4-21 peptide as substrate preincubated for 10 mins in presence of SAM followed by substrate addition by SAHH-coupled fluorescence assay relative to control.
Chain of Protein arginine N-methyltransferase 1 (Homo sapiens) (Q99873 whole entry, looked up, the tested form may be a part): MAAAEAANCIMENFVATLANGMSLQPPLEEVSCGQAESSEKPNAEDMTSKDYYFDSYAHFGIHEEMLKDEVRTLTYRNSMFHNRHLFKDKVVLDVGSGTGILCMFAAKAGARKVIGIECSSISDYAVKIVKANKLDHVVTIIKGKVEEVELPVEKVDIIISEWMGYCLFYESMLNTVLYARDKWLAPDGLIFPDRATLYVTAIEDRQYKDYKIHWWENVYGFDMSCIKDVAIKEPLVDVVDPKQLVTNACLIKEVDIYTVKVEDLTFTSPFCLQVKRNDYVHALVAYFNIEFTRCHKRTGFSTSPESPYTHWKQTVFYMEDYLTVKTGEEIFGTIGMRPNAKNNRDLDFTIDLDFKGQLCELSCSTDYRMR
Series [12] is filed under the species Homo sapiens. Nature of the series: Selectivity for recombinant human N-terminal His6-tagged NTMT1 (1 to 222 residues) expressed in Escherichia coli BL21-CodonPlus(DE3)-RIL over PRMT1 (unknown origin).
Series [13] has as its target Protein arginine N-methyltransferase 3 (Homo sapiens) (UniProt O60678). Nature of the series: Inhibition of PRMT3 (unknown origin) at 100 uM relative to control.
The target of series [14] is Adenosylhomocysteinase (Homo sapiens) (UniProt P23526). The series can be described thus: Inhibition of SAHH (unknown origin) at 100 uM relative to control.
Chain of Adenosylhomocysteinase (Homo sapiens) (P23526 2-432 limits assumed): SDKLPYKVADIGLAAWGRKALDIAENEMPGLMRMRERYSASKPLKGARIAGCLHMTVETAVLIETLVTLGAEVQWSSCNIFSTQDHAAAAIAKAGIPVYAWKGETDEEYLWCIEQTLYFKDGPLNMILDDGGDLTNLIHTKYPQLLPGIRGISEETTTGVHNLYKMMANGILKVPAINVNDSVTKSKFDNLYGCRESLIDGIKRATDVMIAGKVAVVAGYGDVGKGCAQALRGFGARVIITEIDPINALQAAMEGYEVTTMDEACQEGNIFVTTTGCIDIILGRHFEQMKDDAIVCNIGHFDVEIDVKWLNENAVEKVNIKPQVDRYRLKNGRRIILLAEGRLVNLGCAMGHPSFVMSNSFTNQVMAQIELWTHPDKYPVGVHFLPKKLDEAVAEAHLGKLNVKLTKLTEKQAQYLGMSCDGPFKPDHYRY
Series [15] addresses T1, N-terminal Xaa-Pro-Lys N-methyltransferase 1 (Homo sapiens). Nature of the series: Non-competitive inhibition of recombinant human N-terminal His6-tagged NTMT1 (1 to 222 residues) expressed in Escherichia coli BL21-CodonPlus(DE3)-RIL using GPKRIA peptide and varying concentration of SAM as substrate pre-incubated for 10 mins in presence of SAM followed by fixed concentration of substrate addition and measured for 15 mins by SAHH coupled fluorescence assay. As to conditions: time 25.0 min.

The species entered for series [16] is Homo sapiens. Nature of the series: Selectivity for recombinant human N-terminal His6-tagged NTMT1 (1 to 222 residues) expressed in Escherichia coli BL21-CodonPlus(DE3)-RIL over human His-tagged G9a (913 to 1193 residues) expressed in Escherichia coli BL21-CodonPlus(DE3)-RIL.
A short description of series [17]: Selectivity for recombinant human N-terminal His6-tagged NTMT1 (1 to 222 residues) expressed in Escherichia coli BL21-CodonPlus(DE3)-RIL over Trypanosoma brucei N-terminal His6-tagged PRMT7 expressed in Escherichia coli BL21-CodonPlus(DE3)-RIL.
The subject of series [18] is Trypanosoma brucei. Nature of the series: Inhibition of Trypanosoma brucei N-terminal His6-tagged PRMT7 expressed in Escherichia coli BL21-CodonPlus(DE3)-RIL at 100 uM using H4-21 peptide as substrate preincubated for 10 mins in presence of SAM followed by substrate addition by SAHH-coupled fluorescence assay relative to control.
The species named for series [19] is Homo sapiens. The series can be described thus: Selectivity for recombinant human N-terminal His6-tagged NTMT1 (1 to 222 residues) expressed in Escherichia coli BL21-CodonPlus(DE3)-RIL over SAHH (unknown origin).

Each structure is given as a SMILES string. Active and inactive are the calls of the source. No cut-off for these calls is given here.

Chain of Protein arginine N-methyltransferase 3 (Homo sapiens) (O60678 2-531 limits assumed): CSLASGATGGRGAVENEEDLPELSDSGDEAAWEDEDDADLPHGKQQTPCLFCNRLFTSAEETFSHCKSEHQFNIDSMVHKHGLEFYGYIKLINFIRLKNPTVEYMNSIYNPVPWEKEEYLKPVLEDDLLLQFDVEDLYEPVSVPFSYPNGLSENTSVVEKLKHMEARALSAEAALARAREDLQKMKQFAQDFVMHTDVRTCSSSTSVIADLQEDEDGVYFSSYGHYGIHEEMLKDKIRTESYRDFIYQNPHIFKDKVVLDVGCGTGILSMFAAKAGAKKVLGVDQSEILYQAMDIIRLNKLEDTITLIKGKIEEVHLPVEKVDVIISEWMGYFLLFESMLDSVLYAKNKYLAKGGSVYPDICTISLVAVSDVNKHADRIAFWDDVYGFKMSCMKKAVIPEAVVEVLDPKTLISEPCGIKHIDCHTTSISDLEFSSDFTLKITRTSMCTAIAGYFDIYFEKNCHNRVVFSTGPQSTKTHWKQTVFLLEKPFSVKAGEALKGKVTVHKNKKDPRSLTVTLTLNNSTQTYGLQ

In the case of `NCCCC[C@H](NC(=O)[C@@H]1CCCN1C(=O)Cc1cccc2ccccc12)C(=O)Nc1cccc2ccccc12`, the inhibition in series [1] came out at 1%; in [3], 47%; in [4], 0%. The IC50 in series [2] worked out at 0.97 µM.
As to `CN(C(=O)[C@H](CCCCN)NC(=O)[C@@H]1CCCN1C(=O)Cc1cccc2ccccc12)[C@@H](CCCNC(=N)N)C(N)=O`, the Stabilty entry in series [5] is given as “Stable”.
Take `CN(C(=O)[C@H](CCCCN)NC(=O)[C@@H]1CCCN1C(=O)Cc1cccc2ccccc12)[C@@H](CCCCN)C(N)=O`: the inhibition worked out at 48% in series [1], 100% in [3] and 0% in [4]. Besides, the IC50 in series [2] was 0.47 µM. Moreover, in [5], the Stabilty result is recorded as “Stable”.
With `N=C(N)NCCC[C@H](NC(=O)[C@H](CCCCN)NC(=O)[C@@H]1CCCN1C(=O)Cc1cccc2ccccc12)C(N)=O`, the Selectivity ratio in [6], in series [7], in series [12], in [16], in series [17] and in [19] was over 1000 in each case. For the same molecule, the IC50 in series [8] stood at 1000 µM; in [2], 0.1 µM. In addition, the inhibition in series [9] was under 50%; in [10] it was under 50%; in series [11], under 50%; in [13] it was under 50%; in series [1] it was 10%; in series [14] it was under 50%. The values for the inhibition in [18], in series [3] and in series [4] were under 50%, 52% and 3%, respectively. Besides, in series [15], the inhibition result is “Active”. In series [5], the Stabilty entry is on record as “Unstable”.
Turning to `NCCCC[C@H](NC(=O)[C@@H]1CCCN1C(=O)Cc1cccc2ccccc12)C(=O)Nc1cccc(C(N)=O)c1`, the values for the inhibition in series [1], in [3] and in [4] were 57%, 90% and 10%, respectively. Further, the IC50 in series [2] amounted to 0.13 µM.
As for `NCCCC[C@H](NC(=O)[C@@H]1CCCN1C(=O)Cc1cccc2ccccc12)C(=O)Nc1ccccc1`, the results for the inhibition in series [1], in [3] and in series [4] were 55%, 79% and 0%, respectively. In series [2], the IC50 is 1.1 µM.
`N=C(N)NCCC[C@H](NC(=O)[C@H](CCCCN)NC(=O)[C@@H]1CCCN1C(=O)Cc1cccc2ncccc12)C(N)=O`: the IC50 in series [2] is over 100 µM.
For the molecule `C[C@@H](C(N)=O)N(C)C(=O)[C@H](CCCCN)NC(=O)[C@@H]1CCCN1C(=O)Cc1cccc2ccccc12`, the results for the inhibition in series [1], in series [3] and in [4] were 3%, 70% and 0%, respectively. In addition, in series [2], the IC50 was 0.58 µM. Further, in [5], the Stabilty result is given as “Stable”.
As to `NCCCC[C@H](NC(=O)[C@@H]1CCCN1C(=O)Cc1cccc2ccccc12)C(=O)N[C@@H](CCC(=O)O)C(N)=O`, the IC50 in [2] amounted to 4.2 µM.
